Measurements: patent US4829076A, “Novel dihydropyridines having calcium antagonistic and antihypertensive activity” (Alkaloida Vegyeszeti Gyar, priority 1986, dated 1989)
Read-outs that look alike come from different tables or passages of the source.

Assays:
[1] = tested on: PGF2alpha induced uterus contractions (isolated rat uterus); assay: In vitro uterus relaxant activity in the isolated rat uterus (inhibition of PGF2alpha induced contraction); details: 10^-6 M test compound
Procedure: The test was performed according to the method of Gaddum and Hammeed [Brit. […] The inhibitory activity of 10^-6 M doses of the test compounds on the PGF2alpha induced uterus contractions was determined.

[2] = tested on: anesthetized, normotensive cats; assay: Hypotensive effect in anesthetized, normotensive cats; format: in vivo, cat; details: 1 mg/kg id.
Procedure: A tube was inserted in the trachea of cats anesthetized with ip.35 mg/kg of pentobarbital sodium to ensure spontaneous respiration. The femoral artery and vein were both cannulated unilaterally. The vegetative test compounds (adrenaline, isoproterenol) were administered through the venous cannule. The mean arterial blood pressure was measured by joining the arterial cannule to a Statham P23Db pressure transducer and electromanometer. The heart rate was determined by a cardiotachometer triggered by arterial pulse-wave.
Various doses of the test compounds were administered through a cannule inserted into the duodenum.

[3] = tested on: spontaneously hypertensive conscious rats; assay: Antihypertensive effect in spontaneously hypertensive conscious rats ("SH" rats); format: in vivo, rat (Wistar-Okamoto); details: 10 mg/kg p.o.; for change in vivo at 10 mg/kg: Rattus norvegicus, po
Procedure: The blood pressure of rats was measured before treatment and hourly after drug administration till the 24th posttreatment hour. The test compounds were administered orally, by gavage.

[4] = tested on: conscious rats with renal hypertension; assay: Antihypertensive effect in rats with renal hypertension ("RH" rats); format: in vivo, rat (CFY male); details: 10 mg/kg p.o.
Procedure: The test was performed according to the method of Grollman [Proc. Soc. Exptl. […] The test compounds were administered orally.

[5] = tested on: conscious rats with DOCA-induced hypertension; assay: Antihypertensive effect in rats with DOCA-induced hypertension ("DH" rats); format: in vivo, rat; details: for Systolic blood pressure, 0 h: 0 h (baseline)
Procedure: The test was performed according to Cunning et al. [J. Pharm. Exp. Ther. 161, 88 (1981)].

[6] = molecular target: T1, potential-mediated calcium channel (Rattus norvegicus, UniProt P22002); assay: Calcium-antagonistic effect on an isolated vessel preparation (portal vein); details: depolarizing solution (90 mM KCl), CaCl2 2.5 and 5.0 mM, 37° C., pH 7.4, read-out: Inhibition of the potential-mediated calcium channel, IC50
T1 construct: Portal veins were obtained from decapitated male rats; from tissue; host or cells: rat portal vein (longitudinally incised venous segment)
T1 sequence (P22002 whole entry): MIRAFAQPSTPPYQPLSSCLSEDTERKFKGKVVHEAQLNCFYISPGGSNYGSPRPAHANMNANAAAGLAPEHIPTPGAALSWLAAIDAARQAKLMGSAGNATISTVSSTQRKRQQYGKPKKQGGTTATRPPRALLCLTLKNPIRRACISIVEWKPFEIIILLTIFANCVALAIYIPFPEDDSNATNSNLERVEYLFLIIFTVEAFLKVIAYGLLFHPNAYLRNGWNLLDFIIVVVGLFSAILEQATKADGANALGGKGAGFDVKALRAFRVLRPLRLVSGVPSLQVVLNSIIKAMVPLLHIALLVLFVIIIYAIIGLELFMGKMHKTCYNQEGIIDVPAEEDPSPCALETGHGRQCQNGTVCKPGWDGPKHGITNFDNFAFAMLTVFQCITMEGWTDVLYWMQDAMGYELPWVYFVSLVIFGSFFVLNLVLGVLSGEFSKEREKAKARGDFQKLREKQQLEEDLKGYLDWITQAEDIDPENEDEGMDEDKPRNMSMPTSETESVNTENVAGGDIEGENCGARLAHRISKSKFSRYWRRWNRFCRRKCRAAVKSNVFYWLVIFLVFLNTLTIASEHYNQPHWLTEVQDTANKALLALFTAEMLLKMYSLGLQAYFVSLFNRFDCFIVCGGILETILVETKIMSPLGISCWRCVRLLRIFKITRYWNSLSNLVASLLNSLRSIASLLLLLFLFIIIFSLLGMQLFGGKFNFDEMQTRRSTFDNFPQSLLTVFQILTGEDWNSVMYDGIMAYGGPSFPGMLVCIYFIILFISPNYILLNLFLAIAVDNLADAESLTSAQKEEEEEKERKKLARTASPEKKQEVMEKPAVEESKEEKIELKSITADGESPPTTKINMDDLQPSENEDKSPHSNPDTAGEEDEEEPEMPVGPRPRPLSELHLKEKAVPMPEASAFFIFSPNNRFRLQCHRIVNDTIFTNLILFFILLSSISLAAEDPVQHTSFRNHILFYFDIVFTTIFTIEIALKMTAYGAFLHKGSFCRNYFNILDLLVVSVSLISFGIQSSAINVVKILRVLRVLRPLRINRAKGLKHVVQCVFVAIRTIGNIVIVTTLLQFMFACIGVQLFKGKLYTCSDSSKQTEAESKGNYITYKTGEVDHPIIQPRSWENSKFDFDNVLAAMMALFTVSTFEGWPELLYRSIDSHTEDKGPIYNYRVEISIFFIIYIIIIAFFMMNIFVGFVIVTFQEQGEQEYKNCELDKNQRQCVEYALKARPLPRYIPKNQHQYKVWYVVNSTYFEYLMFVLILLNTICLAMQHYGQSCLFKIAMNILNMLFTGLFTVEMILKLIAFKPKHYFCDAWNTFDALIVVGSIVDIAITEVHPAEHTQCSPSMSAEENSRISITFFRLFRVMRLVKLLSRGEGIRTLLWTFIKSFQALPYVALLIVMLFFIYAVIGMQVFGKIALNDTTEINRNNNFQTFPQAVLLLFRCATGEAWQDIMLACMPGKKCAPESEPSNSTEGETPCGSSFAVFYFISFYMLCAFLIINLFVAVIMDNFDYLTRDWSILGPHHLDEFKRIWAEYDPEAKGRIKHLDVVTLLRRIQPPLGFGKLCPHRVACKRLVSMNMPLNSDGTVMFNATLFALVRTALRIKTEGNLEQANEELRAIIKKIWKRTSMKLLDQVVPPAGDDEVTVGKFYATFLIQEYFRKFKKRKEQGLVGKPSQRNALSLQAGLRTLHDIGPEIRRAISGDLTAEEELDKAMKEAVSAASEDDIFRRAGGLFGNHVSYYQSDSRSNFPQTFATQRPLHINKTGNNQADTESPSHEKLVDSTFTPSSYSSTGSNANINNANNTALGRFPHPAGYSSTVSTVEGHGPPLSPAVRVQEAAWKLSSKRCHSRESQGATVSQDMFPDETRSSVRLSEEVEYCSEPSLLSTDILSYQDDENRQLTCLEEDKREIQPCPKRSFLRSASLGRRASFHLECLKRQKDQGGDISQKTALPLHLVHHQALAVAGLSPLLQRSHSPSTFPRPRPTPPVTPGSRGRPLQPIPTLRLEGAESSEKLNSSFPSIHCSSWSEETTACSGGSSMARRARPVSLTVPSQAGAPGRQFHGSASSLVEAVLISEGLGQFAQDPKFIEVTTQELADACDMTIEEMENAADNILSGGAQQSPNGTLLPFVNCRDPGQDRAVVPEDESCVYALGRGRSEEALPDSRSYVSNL
T1 sequence (P54290 25-943 partner limits assumed): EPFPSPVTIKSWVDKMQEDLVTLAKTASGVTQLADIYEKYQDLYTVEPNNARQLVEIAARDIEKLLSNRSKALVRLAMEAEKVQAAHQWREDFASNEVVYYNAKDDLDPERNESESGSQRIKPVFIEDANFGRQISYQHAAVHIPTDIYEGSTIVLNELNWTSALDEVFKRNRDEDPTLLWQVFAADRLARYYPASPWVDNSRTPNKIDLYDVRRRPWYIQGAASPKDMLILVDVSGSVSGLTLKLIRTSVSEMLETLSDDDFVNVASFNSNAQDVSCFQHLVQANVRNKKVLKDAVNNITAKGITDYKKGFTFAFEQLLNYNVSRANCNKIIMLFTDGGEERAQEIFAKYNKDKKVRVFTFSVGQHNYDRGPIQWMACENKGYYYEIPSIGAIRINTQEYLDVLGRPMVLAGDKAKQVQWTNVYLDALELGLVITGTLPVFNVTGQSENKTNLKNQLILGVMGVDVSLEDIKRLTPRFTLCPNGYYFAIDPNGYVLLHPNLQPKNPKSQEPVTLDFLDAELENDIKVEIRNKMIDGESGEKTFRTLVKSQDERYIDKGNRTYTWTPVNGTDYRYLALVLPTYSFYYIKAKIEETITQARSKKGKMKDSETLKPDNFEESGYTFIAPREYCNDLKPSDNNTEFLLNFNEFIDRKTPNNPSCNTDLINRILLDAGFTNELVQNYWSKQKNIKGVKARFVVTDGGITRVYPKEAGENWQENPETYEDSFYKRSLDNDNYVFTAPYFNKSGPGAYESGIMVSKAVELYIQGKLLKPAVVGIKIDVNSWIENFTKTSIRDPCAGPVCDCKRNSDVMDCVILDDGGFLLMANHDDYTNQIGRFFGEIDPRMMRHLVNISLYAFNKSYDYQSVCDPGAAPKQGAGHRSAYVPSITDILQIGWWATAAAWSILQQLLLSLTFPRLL
T1 sequence (P54290 944-1091 partner limits assumed): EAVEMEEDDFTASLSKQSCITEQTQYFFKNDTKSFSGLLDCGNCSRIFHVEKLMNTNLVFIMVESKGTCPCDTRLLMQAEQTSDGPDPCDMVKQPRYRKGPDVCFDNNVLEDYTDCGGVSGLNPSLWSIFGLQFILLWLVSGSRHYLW

[7] = molecular target: T2, 1,4-dihydropyridine receptor; assay: Receptor binding studies (displacement of 3H-nitrendipine, heart microsomal preparation); details: displacement of 50% of 3H-nitrendipine
T2 construct: to the heart microsomal preparation; from tissue; host or cells: heart microsomal preparation

IC50 [6]: 2.5 nM
IC50 [7]: 16 ± 1.6 nM
SMILES: COC(=O)C1=C(C)NC(C)=C(C(=O)OC)C1c1ccccc1NC(=O)C(F)(F)F [Example 34, 2,6-Dimethyl-3,5-bis(methoxycarbonyl)-4-(2-trifluoro-acetamidophenyl)-1,4-dihydropyridine]
Inhibition of PGF2alpha induced contraction [1]: 98.0%
Mean arterial pressure, 5 min ([2]; 5 min): 90 Hgmm
Mean arterial pressure, 15 min ([2]; 15 min): 60 Hgmm
Mean arterial pressure, 30 min ([2]; 30 min): 75 Hgmm
Mean arterial pressure, 60 min ([2]; 60 min): 90 Hgmm
Mean arterial pressure, 120 min ([2]; 120 min): 105 Hgmm
Systolic blood pressure, 2 h ([3]; 2 h): 170.0 Hgmm
Systolic blood pressure, 5 h ([3]; 5 h): 182.0 Hgmm
Systolic blood pressure, 24 h ([3]; 24 h): 216.0 Hgmm
change in vivo at 10 mg/kg ([3]; 2 h, read-out: Systolic blood pressure reduction in %, 2 h): -25%
change in vivo at 10 mg/kg ([3]; 5 h, read-out: Systolic blood pressure reduction in %, 5 h): -19%
change in vivo at 10 mg/kg ([3]; 24 h, read-out: Systolic blood pressure reduction in %, 24 h): -4%
Systolic blood pressure, 0 h ([4]; 0 h (baseline)): 198.0 Hgmm
Pressure reduction in %, 2 h ([4]; 2 h): -28%
Systolic blood pressure, 2 h ([4]; 2 h): 141.0 Hgmm
Pressure reduction in %, 5 h ([4]; 5 h): -14%
Systolic blood pressure, 5 h ([4]; 5 h): 167.0 Hgmm
Pressure reduction in %, 24 h ([4]; 24 h): 0%
Systolic blood pressure, 24 h ([4]; 24 h): 199.0 Hgmm
Systolic blood pressure, 0 h ([5]; 5 mg/kg p.o.): 192.0 Hgmm
Pressure reduction in %, 2 h ([5]; 5 mg/kg p.o.): -22%
Systolic blood pressure, 2 h ([5]; 5 mg/kg p.o.): 150.0 Hgmm
Pressure reduction in %, 5 h ([5]; 5 mg/kg p.o.): -16%
Systolic blood pressure, 5 h ([5]; 5 mg/kg p.o.): 163.0 Hgmm
Pressure reduction in %, 24 h ([5]; 5 mg/kg p.o.): 0%
Systolic blood pressure, 24 h ([5]; 5 mg/kg p.o.): 193.0 Hgmm
Systolic blood pressure, 0 h ([5]; 10 mg/kg p.o.): 189.0 Hgmm
Pressure reduction in %, 2 h ([5]; 10 mg/kg p.o.): -23%
Systolic blood pressure, 2 h ([5]; 10 mg/kg p.o.): 146.0 Hgmm
Pressure reduction in %, 5 h ([5]; 10 mg/kg p.o.): -30%
Systolic blood pressure, 5 h ([5]; 10 mg/kg p.o.): 134.0 Hgmm
Pressure reduction in %, 24 h ([5]; 10 mg/kg p.o.): -2%
Systolic blood pressure, 24 h ([5]; 10 mg/kg p.o.): 186.0 Hgmm
